Measured values as given in publication PMC4632503, “Targeting of Helicobacter pylori thymidylate synthase ThyX by non-mitotoxic hydroxy-naphthoquinones” (Open Biology, 2015).
Like-named read-outs stand apart in the source and are kept apart here.

What was measured:
H. pylori 26695 = experiment: bactericidal activity, viable counts (CFU) in liquid culture; format: cell-based, Helicobacter pylori; details: exposure up to 24 h, replating on solid media
Protocol: To determine the bactericidal activity of C8-C1 against H. pylori, liquid BHI medium was inoculated with an overnight culture of H. pylori 26695 at an initial OD600 of 0.1. C8-C1 or chloramphenicol, used as bacteriostatic control, were added after 4 h of culture time at final concentrations of 5 and 30 µg ml^−1. To determine the viable counts of surviving bacteria (colony forming units, CFU), aliquots of culture were then plated in triplicate on blood agar plates after 3 and 24 h exposure.

HpThyX [1] = target: T1, HpThyX (Helicobacter pylori, UniProt O26061); experiment: tritium release (deprotonation) assay of [5-3H]dUMP; format: biochemical; details: for remaining activity at 100 µM: 20 min, read-out: inhibition against ThyX (% remaining activity relative to control); for dTMP-forming activity: quantitative tritium release assay, 100 μM compound, 10 μM ThyX enzyme
T1 construct: His6; made in house; host or cells: Escherichia coli BL21 (plasmid pGL2, pBAD promoter)
T1 sequence (O26061 whole entry): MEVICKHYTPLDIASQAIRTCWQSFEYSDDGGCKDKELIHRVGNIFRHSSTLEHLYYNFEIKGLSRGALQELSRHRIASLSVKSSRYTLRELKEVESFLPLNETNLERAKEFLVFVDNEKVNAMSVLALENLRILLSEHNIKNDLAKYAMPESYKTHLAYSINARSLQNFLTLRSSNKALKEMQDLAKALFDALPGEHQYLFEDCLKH
Protocol: (§1) HpThyX activity was assessed by measuring either deprotonation of [5-^3H]dUMP or NAPDH oxidation activities.
In the tritium release (deprotonation) assays, typical reactions contained 10 mM MgCl2, 10% (v/v) glycerol, 500 µM FAD, 2 mM NADPH, 1 mM CH2H4Folate and 10 mM β-mercaptoethanol in 50 mM HEPES (pH 8). Different concentrations of dUMP were also included in the reaction mixtures. The specific activity of tritiated [5-^3H]dUMP (diammonium salt) stock was 15–30 Ci mmol^−1 (Moravek Biochemicals, CA, USA). 2-OH-1,4-NQ derivatives were prepared at 100 µM in 1% DMSO. Reactions were initiated by adding the enzyme (10 µM) and were stopped after 20 min incubation at 37°C.

H. pylori strain 26695 = experiment: MIC, broth microdilution test, strain 26695; format: cell-based; details: Helicobacter pylori, 26695, 24 h, read-out: minimal inhibitory concentration (MIC) strain 26695
Protocol: (§2) The in vitro anti-bacterial activity of 2-OH-1,4-NQ compounds was assessed against the 26695 and SS1 strains of H. pylori. DMSO was used as control in all experiments.
(§3) Disc diffusion tests were performed in triplicate, including a DMSO-only control on each plate, as specified in the electronic supplementary material. Minimal inhibitory concentrations (MICs) were determined using a broth microdilution test in 24-well microtitre plates. For test inocula, an overnight preculture of H. pylori strains 26695 and SS1 was diluted to an OD600 of approximately 0.1 and 0.5 ml of this suspension was transferred to each well. Ten microlitres of twofold serial dilutions of each compound in DMSO, ranging in concentration from 0.625 to 20 µg ml^−1, were added and the covered plates were incubated for 24 h at 37°C with orbital shaking at 140 r.p.m. under microaerophilic conditions. The MIC was determined as the lowest compound concentration resulting in full growth inhibition after 24 h of incubation. All the tests were done in triplicate, including cell-free and DMSO-only controls.

H. pylori strain SS1 = experiment: MIC, broth microdilution test, strain SS1; format: cell-based; details: Helicobacter pylori, 24 h, read-out: minimal inhibitory concentration (MIC) strain SS1
Protocol: as §2, §3

AGS cells [2] = experiment: cytotoxicity, LDH release; format: cell-based, human; details: for cytotoxicity: 0.78 to 50 μg ml^−1, 24 h
Protocol: Cytotoxicity of the 2-OH-1,4-NQ derivatives was assessed by measuring lactate dehydrogenase (LDH) release following manufacturer's instructions (Cytotoxicity Detection Kit; Roche Applied Sciences). Briefly, AGS cells (human gastric adenocarcinoma cell line; ATCC Catalog no. CRL-1739TM) were cultured in Ham's F-12 K medium containing 1% of FBS. A total of 3 × 10^4 cells were added per well in a sterile 96-well tissue culture plate. Cells were then treated with different doses of 2-OH-1,4-NQ compounds ranging from 0.78 to 50 μg ml^−1. After a 24 h incubation at 37°C (5% CO2, 90% humidity), the microplates were centrifuged at 250g for 10 min, and the supernatants were carefully removed and transferred into optically clear 96-well microplates (Greiner Bio-One). The dye solution containing iodotetrazolium chloride and sodium lactate was then added to each well to quantify the amount of LDH released into the extracellular medium. LDH was quantified by measuring the A490 using a PowerWave Microplate Spectrophotometer (BioTek).

AGS cells [3] = experiment: mitotoxicity, resazurin reduction; format: cell-based, human; details: for mitotoxicity: 0.78 to 50 μg ml^−1, 4 h treatment; for effect on mitochondrial metabolism: low concentrations, resazurin reduction
Protocol: Mitochondrial toxicity (mitotoxicity) was assessed by measuring resazurin (7-hydroxy-3H-phenoxazin-3-one 10-oxide) reduction by following absorption changes at 570 nm (Mitochondrial Viability Assay; Abcam). Resazurin is an indicator dye that reports on oxidation–reduction reactions taking place in the mitochondria of living cells. AGS cells (≅2.5 × 10^5cells well^−1) cultured in a DMEM galactose/glutamine-supplemented medium were seeded in sterile white-walled 96-well clear-bottom microplates and treated for 4 h with different doses of 2-OH-1,4-NQ compounds ranging from 0.78 to 50 μg ml^−1. Addition of the stain solution was followed by a further 4 h incubation at 37°C (5% CO2, 90% humidity) and A570 was measured. Rotenone, an inhibitor of the mitochondrial respiratory chain complex I, was used as a positive control.

[4] = tolerance of orogastric treatment in infected mice; format: in vivo, NMRI mice; details: orogastric three times a day, 0.375 mg mouse day^−1, one week; for effect on body or stomach weight: data not shown
Protocol: NMRI-specific pathogen-free mice (Charles River Laboratories) were orogastrically inoculated with 10^8 CFU of the H. pylori mouse-adapted strain SS1, prepared in 100 μl of peptone broth. Four groups of six to eight mice were infected by H. pylori strain SS1. Earlier experiments have established that after one week, colonization of mice is fully established. A negative control group of five mice was inoculated with peptone broth alone and was not colonized by H. pylori. One week after infection, three groups of mice were treated orogastrically three times a day with 500 µl of either compound 010-C, 010-E or 010-I dissolved in 2% β-cyclodextrin at 0.25 mg ml^−1 (0.375 mg mouse d^−1) during one week. As a control, the fourth group of mice was treated orogastrically three times a day by the same amount of 2% β-cyclodextrin (17.6 mM), the vehicle of the compounds. […] This average size is in agreement with the average size of β-cyclodextrin particles that self-aggregate in water at a concentration of 12 mM [39]. After treatment, viable H. pylori cells, colonizing the mouse stomach, were enumerated by culture of serial dilutions of homogenized tissue on blood agar plates containing bacitracin (200 μg ml^−1) and nalidixic acid (10 μg ml^−1) as in [40].

HpThyX [5] = target: T1, HpThyX; experiment: NADPH oxidation assay; format: biochemical; details: estimated from slope of IC50 versus dUMP concentration
Protocol: as §1
NADPH oxidation assays were performed at 37°C in 96-well plates (Greiner Bio-One). One hundred microlitres of reaction mixture contained HEPES 50 mM (pH 8.6), NaCl 150 mM, FAD 50 µM, β-mercaptoethanol 1.43 mM, NADPH 500 µM and 10 µM of purified HpThyX. dUMP and 2-OH-1,4-NQ concentrations were varied across 12.5–200 µM and 0.3–100 µM, respectively. Microtitre plates were prepared and transferred to the microplate reader Chameleon II (Hidex). The reactions were started by automatically injecting NADPH into individual wells and ThyX activity was determined by following a decrease in absorbance at 340 nm. A molar extinction coefficient of 6220 M^−1 cm^−1 at 340 nm (ε340) was used to quantify NADPH oxidation. Samples with added DMSO and enzyme-free reactions were used as positive and negative controls, respectively.

[6] = semi-quantitative deprotonation assay, remaining activity, lower = stronger inhibition

Row | Compound | remaining activity at 100 µM (HpThyX [1]; [6]) | MIC (H. pylori strain 26695; full growth inhibition) | MIC (H. pylori strain 26695; value in brackets) | MIC (H. pylori strain SS1; full growth inhibition) | MIC (H. pylori strain SS1; value in brackets) | other results
1 | O=C(N[C@H](CO)[C@H](O)c1ccc([N+](=O)[O-])cc1)C(Cl)Cl [chloramphenicol, reference compound] | – | – | – | – | – | kind of anti-microbial activity / viable cells after exposure (H. pylori 26695): bacteriostatic
2 | O=C1C(O)=C(Cc2ccc(F)c(Cl)c2)C(=O)c2ccccc21 [010-F] | 74.5% | 10 µg/mL | 31.6 µM | 5 µg/mL | 15.8 µM | –
3 | O=C1C(O)=C(Cc2ccc(-c3ccc(Cl)cc3)cc2)C(=O)c2ccccc21 [007-B] | 60.2% | 10 µg/mL | 26.7 µM | 10 µg/mL | 26.7 µM | –
4 | O=C1C(O)=C(Cc2ccc(OC(F)(F)F)cc2)C(=O)c2ccccc21 [007-C] | – | 5 µg/mL | – | 5 µg/mL | – | remaining activity at 100 µM (HpThyX [1]): 62.5%
5 | COc1ccc(CC2=C(O)C(=O)c3ccccc3C2=O)cc1OC [010-K] | 75.1% | 20 µg/mL | 61.7 µM | 10 µg/mL | 30.8 µM | –
6 | O=C1C(O)=C(Cc2ccc(Cl)cc2)C(=O)c2ccccc21 [010-A] | 49.5% | 10 µg/mL | 33.5 µM | 5 µg/mL | 16.7 µM | –
7 | O=C1C(O)=C(Cc2cccs2)C(=O)c2ccccc21 [010-D] | 36.4% | 10 µg/mL | 37 µM | 10 µg/mL | 37 µM | –
8 | O=C1C(O)=C(C=Cc2ccc(F)cc2)C(=O)c2ccccc21 [010-J] | 49.7% | 2.5 µg/mL | 8.49 µM | 2.5 µg/mL | 8.49 µM | –
9 | O=C1C(O)=C(Cc2ccc(F)c(C(F)(F)F)c2)C(=O)c2ccccc21 [010-E] | 77.7% | 5 µg/mL | 14.3 µM | 5 µg/mL | 14.3 µM | dTMP-forming activity (HpThyX [1]): suppressed the dTMP-forming activity; cytotoxicity (AGS cells [2]): non-cytotoxic; mitotoxicity (AGS cells [3]): non-mitotoxic; effect on mitochondrial metabolism (AGS cells [3]): activated the mitochondrial metabolism; tolerance in mice [4]: tolerated in mice; effect on body or stomach weight [4]: None of the aforementioned treatments affected either the body or stomach weight
10 | O=C1C(O)=C(Cc2cc(F)cc(F)c2)C(=O)c2ccccc21 [010-B] | 74.3% | 10 µg/mL | 33.3 µM | 10 µg/mL | 33.3 µM | –
11 | O=C1C(O)=C([C@H]2CC[C@H](c3ccc(Cl)cc3)CC2)C(=O)c2ccccc21 [atovaquone, 2-(trans-4-(4-chlorophenyl)cyclohexyl)-3-hydroxy-1,4-naphthoquinone, reference compound] | – | – | – | – | – | cytotoxic effect (AGS cells [2]; 25 µg ml^−1, 24 h): 48 ± 5%; mitotoxicity (AGS cells [3]): targeted mitochondria
12 | CC(C)Oc1ccc(CC2=C(O)C(=O)c3ccccc3C2=O)cc1 [007-D] | 45.7% | ≥ 20 µg/mL | ≥ 62 µM | 20 µg/mL | 62 µM | –
13 | COc1cc(CC2=C(O)C(=O)c3ccccc3C2=O)ccc1O [010-H] | 57.8% | 20 µg/mL | 64.5 µM | 10 µg/mL | 32.2 µM | –
14 | O=C1C(O)=C(Cc2ccc(F)cc2)C(=O)c2ccccc21 [007-E] | 66.3% | 10 µg/mL | 35.4 µM | 10 µg/mL | 35.4 µM | –
15 | O=C1C(O)=C(Cc2ccc(Oc3ccccc3)cc2)C(=O)c2ccccc21 [007-G] | 61.8% | 20 µg/mL | 56.2 µM | 5 µg/mL | 14 µM | –
16 | O=C1C(O)=C(Cc2ccc(C(F)(F)F)cc2)C(=O)c2ccccc21 [007-F] | – | 5 µg/mL | 15.1 µM | 10 µg/mL | 15.1 µM | remaining activity at 100 µM (HpThyX [1]): 60.6%
17 | O=C1C(O)=C(Cc2ccco2)C(=O)c2ccccc21 [010-C] | 76.4% | 10 µg/mL | 39.3 µM | 10 µg/mL | 39.3 µM | dTMP-forming activity (HpThyX [1]): suppressed the dTMP-forming activity; Ki (HpThyX [5]): 28 nM; cytotoxicity (AGS cells [2]): non-cytotoxic; mitotoxicity (AGS cells [3]): non-mitotoxic; effect on mitochondrial metabolism (AGS cells [3]): activated the mitochondrial metabolism; tolerance in mice [4]: tolerated in mice; effect on body or stomach weight [4]: None of the aforementioned treatments affected either the body or stomach weight
